Read-outs that look alike come from different tables or passages of the source.
Tests used:
METTL3/14 = target: T1, METTL3/14 (Homo sapiens, UniProt Q86U44); assay: METTL3/14 methyltransferase assay (METTL3_14 RFMS, RapidFire mass spectrometry); format: biochemical; details: read-out: METTL3_14 RFMS IC50;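 further: recombinant His-tagged METTL3 with FLAG-tagged METTL14 from baculovirus, SAH product quantified by mass spectrometry against isotope-labelled internal standards, 60 min at room temperature, scaled between no-RNA and DMSO-only wells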
T1 construct: The enzyme used was full-length his-tagged METTL3; His; made in house
T1 sequence (Q86U44 whole entry): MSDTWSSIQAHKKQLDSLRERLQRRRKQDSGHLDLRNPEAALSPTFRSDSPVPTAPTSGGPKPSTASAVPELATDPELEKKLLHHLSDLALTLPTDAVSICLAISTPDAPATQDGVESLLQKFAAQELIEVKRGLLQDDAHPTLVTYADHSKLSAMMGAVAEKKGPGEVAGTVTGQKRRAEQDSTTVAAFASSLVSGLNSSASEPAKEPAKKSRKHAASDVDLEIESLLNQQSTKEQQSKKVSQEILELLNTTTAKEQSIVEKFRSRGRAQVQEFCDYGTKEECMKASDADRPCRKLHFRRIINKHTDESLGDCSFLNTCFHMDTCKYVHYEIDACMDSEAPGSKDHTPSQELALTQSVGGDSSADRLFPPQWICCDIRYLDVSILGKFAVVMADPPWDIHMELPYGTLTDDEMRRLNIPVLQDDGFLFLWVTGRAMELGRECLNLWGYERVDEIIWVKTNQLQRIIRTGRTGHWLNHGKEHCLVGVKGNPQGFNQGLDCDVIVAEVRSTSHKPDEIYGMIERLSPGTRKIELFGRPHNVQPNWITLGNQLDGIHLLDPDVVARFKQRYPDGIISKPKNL
T1 sequence (Q9HCE5 whole entry partner): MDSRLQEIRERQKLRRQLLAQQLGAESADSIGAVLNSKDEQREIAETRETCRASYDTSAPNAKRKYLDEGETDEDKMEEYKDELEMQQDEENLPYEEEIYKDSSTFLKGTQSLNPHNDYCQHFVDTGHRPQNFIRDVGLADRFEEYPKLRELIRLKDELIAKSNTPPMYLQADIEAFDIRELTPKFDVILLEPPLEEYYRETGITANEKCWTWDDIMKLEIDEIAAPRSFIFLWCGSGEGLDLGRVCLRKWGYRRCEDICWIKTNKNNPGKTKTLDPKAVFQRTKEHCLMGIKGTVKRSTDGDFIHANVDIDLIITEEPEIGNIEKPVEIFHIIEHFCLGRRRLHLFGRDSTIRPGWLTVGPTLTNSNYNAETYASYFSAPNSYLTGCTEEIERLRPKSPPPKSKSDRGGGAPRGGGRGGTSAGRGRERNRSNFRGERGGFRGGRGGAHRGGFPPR

MOLM-13 cells = assay: MOLM13 CTG - analysis of cell proliferation (Cell Titre Glo); format: cell-based; details: Homo sapiens, geometric mean, read-out: CTG MOLM13 cells IC50 GEOMEAN
[1] = 5 nM METTL3/14, 0.2 μM RNA substrate, 0.5 μM SAM, lower limit of the assay IC50=5 nM, Compounds 63-265
[2] = 5 nM METTL3/14, 0.2 μM RNA substrate, 0.5 μM SAM, lower limit of the assay IC50=5 nM, Compounds 266-351

With `O=C(NCc1ccc2nc(CNC(=O)c3cc(=O)n4ccccc4n3)cn2c1)c1ccccc1` [Compound 237, 4-oxo-N-({6-[(phenylformamido)methyl]imidazo[1,2-a]pyridin-2-yl}methyl)-4H-pyrido[1,2-a]pyrimidine-2-carboxamide] the IC50 (METTL3/14; [1]) was 742 nM and the IC50 (MOLM-13 cells) was 12900 nM.

`c1cc(-c2cn(Cc3cn4cc(CNCC5CCCCC5)ccc4n3)nn2)c2cn[nH]c2c1` [Compound 248, (cyclohexylmethyl)[(2-{[4-(1H-indazol-4-yl)-1H-1,2,3-triazol-1-yl]methyl}imidazo[1,2-a]pyridin-6-yl)methyl]amine] was tested, and the IC50 (METTL3/14; [1]) was 12.7 nM and the IC50 (MOLM-13 cells) was 1930 nM.

With `COC1(CNCc2ccc3nc(CNC(=O)c4cc(=O)n5ccccc5n4)cn3c2)CCC1` [Compound 273, N-[[6-[[(1-methoxycyclobutyl)methylamino]methyl]imidazo[1,2-a]pyridin-2-yl]methyl]-4-oxo-pyrido[1,2-a]pyrimidine-2-carboxamide] the IC50 (METTL3/14; [2]) was 27.7 nM and the IC50 (MOLM-13 cells) was 9020 nM.

Work on `O=C(NCc1cn2cc(CNCC3CC4(CC4)C3)ccc2n1)c1cc(=O)n2ccccc2n1` [Compound 278, 4-oxo-N-[[6-[(spiro[2.3]hexan-5-ylmethylamino)methyl]imidazo[1,2-a]pyridin-2-yl]methyl]pyrido[1,2-a]pyrimidine-2-carboxamide] yielded an IC50 (METTL3/14; [2]) of 27.6 nM and an IC50 (MOLM-13 cells) of at least 30000 nM.

`O=C(NCc1cn2cc(CNC3CC34CCC4)ccc2n1)c1cc(=O)n2ccccc2n1` (stereo not drawn) [Compound 280, 4-oxo-N-[[6-[(spiro[2.3]hexan-2-ylamino)methyl]imidazo[1,2-a]pyridin-2-yl]methyl]pyrido[1,2-a]pyrimidine-2-carboxamide] showed an IC50 (METTL3/14; [2]) of 13.1 nM and an IC50 (MOLM-13 cells) of 4500 nM.

Molecule `COC(C)(C)CNCc1ccc2nc(CNC(=O)c3cc(=O)n4ccccc4n3)cn2c1` [Compound 281, N-[[6-[[(2-methoxy-2-methyl-propyl)amino]methyl]imidazo[1,2-a]pyridin-2-yl]methyl]-4-oxo-pyrido[1,2-a]pyrimidine-2-carboxamide] has an IC50 (METTL3/14; [2]) of 98.7 nM and an IC50 (MOLM-13 cells) of at least 30000 nM.

Molecule `CC1(CNCc2ccc3nc(CNC(=O)c4cc(=O)n5ccccc5n4)cn3c2)CCC1` [Compound 282, N-[[6-[[(1-methylcyclobutyl)methylamino]methyl]imidazo[1,2-a]pyridin-2-yl]methyl]-4-oxo-pyrido[1,2-a]pyrimidine-2-carboxamide] has an IC50 (METTL3/14; [2]) of 10.6 nM and an IC50 (MOLM-13 cells) of 3420 nM.

In the case of `CCCCNCc1ccc2nc(CNC(=O)c3cc(=O)n4ccccc4n3)cn2c1` [Compound 283, N-[[6-(butylaminomethyl)imidazo[1,2-a]pyridin-2-yl]methyl]-4-oxo-pyrido[1,2-a]pyrimidine-2-carboxamide], the IC50 (METTL3/14; [2]) is reported as 29.3 nM and the IC50 (MOLM-13 cells) is reported as 10700 nM.

`O=C(NCc1cn2cc(CNCC3(O)CCCC3)ccc2n1)c1cc(=O)n2ccccc2n1` [Compound 284, N-[[6-[[(1-hydroxycyclopentyl)methylamino]methyl]imidazo[1,2-a]pyridin-2-yl]methyl]-4-oxo-pyrido[1,2-a]pyrimidine-2-carboxamide] showed an IC50 (METTL3/14; [2]) of 11.5 nM and an IC50 (MOLM-13 cells) of 7400 nM.

`CCC(C)CNCc1ccc2nc(CNC(=O)c3cc(=O)n4ccccc4n3)cn2c1` (stereo not drawn) [Compound 285, N-[[6-[(2-methylbutylamino)methyl]imidazo[1,2-a]pyridin-2-yl]methyl]-4-oxo-pyrido[1,2-a]pyrimidine-2-carboxamide] showed an IC50 (METTL3/14; [2]) of 15 nM and an IC50 (MOLM-13 cells) of 7370 nM.

With `O=C(NCc1cn2cc(CNCCC3CCC3)ccc2n1)c1cc(=O)n2ccccc2n1` [Compound 286, N-[[6-[(2-cyclobutylethylamino)methyl]imidazo[1,2-a]pyridin-2-yl]methyl]-4-oxo-pyrido[1,2-a]pyrimidine-2-carboxamide] the IC50 (METTL3/14; [2]) was 19.3 nM and the IC50 (MOLM-13 cells) was 12300 nM.

Work on `CC(C)(O)CNCc1ccc2nc(CNC(=O)c3cc(=O)n4ccccc4n3)cn2c1` [Compound 287, N-[[6-[[(2-hydroxy-2-methyl-propyl)amino]methyl]imidazo[1,2-a]pyridin-2-yl]methyl]-4-oxo-pyrido[1,2-a]pyrimidine-2-carboxamide] yielded an IC50 (METTL3/14; [2]) of 69.5 nM and an IC50 (MOLM-13 cells) of at least 30000 nM.

`O=C(NCc1cn2cc(CNCC3(O)CCC3)ccc2n1)c1cc(=O)n2ccccc2n1` [Compound 288, N-[[6-[[(1-hydroxycyclobutyl)methylamino]methyl]imidazo[1,2-a]pyridin-2-yl]methyl]-4-oxo-pyrido[1,2-a]pyrimidine-2-carboxamide] was tested, and the IC50 (METTL3/14; [2]) was 13.9 nM and the IC50 (MOLM-13 cells) was 7320 nM.

Molecule `CC1CC(CNCc2ccc3nc(CNC(=O)c4cc(=O)n5ccccc5n4)cn3c2)C1` (stereo not drawn) [Compound 290, N-[[6-[[(3-methylcyclobutyl)methylamino]methyl]imidazo[1,2-a]pyridin-2-yl]methyl]-4-oxo-pyrido[1,2-a]pyrimidine-2-carboxamide] has an IC50 (METTL3/14; [2]) of 18 nM and an IC50 (MOLM-13 cells) of 6980 nM.

With `CCC(C)(C)CNCc1ccc2nc(CNC(=O)c3cc(=O)n4ccccc4n3)cn2c1` [Compound 292, N-[[6-[(2,2-dimethylbutylamino)methyl]imidazo[1,2-a]pyridin-2-yl]methyl]-4-oxo-pyrido[1,2-a]pyrimidine-2-carboxamide] the IC50 (METTL3/14; [2]) was 20 nM and the IC50 (MOLM-13 cells) was 7190 nM.

For `CC[C@H](C)CNCc1ccc2nc(CNC(=O)c3cc(=O)n4ccccc4n3)cn2c1` [Compound 293, N-[[6-[[[(2S)-2-methylbutyl]amino]methyl]imidazo[1,2-a]pyridin-2-yl]methyl]-4-oxo-pyrido[1,2-a]pyrimidine-2-carboxamide], the IC50 (METTL3/14; [2]) was 12.8 nM and the IC50 (MOLM-13 cells) was 4720 nM.

Molecule `CC(C)(C)CNCc1ccc2nc(Cn3cc(-c4cc(Br)cc5[nH]ncc45)nn3)cn2c1` [Example 225, [(2-{[4-(6-bromo-1H-indazol-4-yl)-1H-1,2,3-triazol-1-yl]methyl}imidazo[1,2-a]pyridin-6-yl)methyl](2,2-dimethylpropyl)amine] has an IC50 (METTL3/14; [1]) of 6.69 nM and an IC50 (MOLM-13 cells) of 649 nM.

With `Brc1cc(-c2cn(Cc3cn4cc(CNCC5CCCCC5)ccc4n3)nn2)c2cn[nH]c2c1` [Example 226, [(2-{[4-(6-bromo-1H-indazol-4-yl)-1H-1,2,3-triazol-1-yl]methyl}imidazo[1,2-a]pyridin-6-yl)methyl](cyclohexylmethyl)amine] the IC50 (METTL3/14; [1]) was 8.14 nM and the IC50 (MOLM-13 cells) was 1480 nM.

Work on `CC(C)(C)CNCc1ccc2nc(Cn3cc(-c4cccc5[nH]ncc45)nn3)cn2c1` [Example 250, (2,2-dimethylpropyl)[(2-{[4-(1H-indazol-4-yl)-1H-1,2,3-triazol-1-yl]methyl}imidazo[1,2-a]pyridin-6-yl)methyl]amine] yielded an IC50 (METTL3/14; [1]) of 11.3 nM and an IC50 (MOLM-13 cells) of 3000 nM.

Work on `CC1(C)CCN(Cc2ccc3nc(Cn4cc(-c5cccc6[nH]ncc56)nn4)cn3c2)CC1` [Example 251, 4-[1-({6-[(4,4-dimethylpiperidin-1-yl)methyl]imidazo[1,2-a]pyridin-2-yl}methyl)-1H-1,2,3-triazol-4-yl]-1H-indazole] yielded an IC50 (METTL3/14; [1]) of 5.76 nM and an IC50 (MOLM-13 cells) of 727 nM.

`FC1(F)CC(CNCc2ccc3nc(Cn4cc(-c5cc(Br)cc6[nH]ncc56)nn4)cn3c2)C1` [Example 252, [(2-{[4-(6-bromo-1H-indazol-4-yl)-1H-1,2,3-triazol-1-yl]methyl}imidazo[1,2-a]pyridin-6-yl)methyl][(3,3-difluorocyclobutyl)methyl]amine] showed an IC50 (METTL3/14; [1]) of 8.02 nM and an IC50 (MOLM-13 cells) of 714 nM.

`OCc1ccc2nc(Cn3cc(-c4cc(Br)cc5[nH]ncc45)nn3)cn2c1` [Example 253, (2-{[4-(6-bromo-1H-indazol-4-yl)-1H-1,2,3-triazol-1-yl]methyl}imidazo[1,2-a]pyridin-6-yl)methanol] gave an IC50 (METTL3/14; [1]) of 207 nM and an IC50 (MOLM-13 cells) of 2790 nM.

Work on `CC(C)(C)CNCc1ccc2nc(Cn3cc(-c4ccc5[nH]ncc5c4)nn3)cn2c1` [Example 254, (2,2-dimethylpropyl)[(2-{[4-(1H-indazol-5-yl)-1H-1,2,3-triazol-1-yl]methyl}imidazo[1,2-a]pyridin-6-yl)methyl]amine] yielded an IC50 (METTL3/14) of 10100 nM and an IC50 (MOLM-13 cells) of at least 30000 nM.

Molecule `CC(NCC1CCCCC1)c1ccc2nc(Cn3cc(-c4cccc5[nH]ncc45)nn3)cn2c1` (stereo not drawn) [Example 255] has an IC50 (METTL3/14; [1]) of 25.8 nM and an IC50 (MOLM-13 cells) of 9610 nM.

With `O=C(NCc1cn2cc(C3COCCN3)ccc2n1)c1cc(=O)n2ccccc2n1` (stereo not drawn) [Example 263, N-{[6-(morpholin-3-yl)imidazo[1,2-a]pyridin-2-yl]methyl}-4-oxo-4H-pyrido[1,2-a]pyrimidine-2-carboxamide] the IC50 (METTL3/14; [1]) was 2730 nM and the IC50 (MOLM-13 cells) was 13800 nM.

`Oc1cc(-c2cn(Cc3cn4cc(CNCC5CCC5)ccc4n3)nn2)c2cn[nH]c2c1` [Example 266, 4-[1-[[6-[(cyclobutylmethylamino)methyl]imidazo[1,2-a]pyridin-2-yl]methyl]triazol-4-yl]-1H-indazol-6-ol] was tested, and the IC50 (METTL3/14) was at most 4.23 nM and the IC50 (MOLM-13 cells) was 11100 nM.

Work on `Oc1cc(-c2cn(Cc3cn4cc(CNCC5(O)CCC5)ccc4n3)nn2)c2cn[nH]c2c1` [Example 267, 4-[1-[[6-[[(1-hydroxycyclobutyl)methylamino]methyl]imidazo[1,2-a]pyridin-2-yl]methyl]triazol-4-yl]-1H-indazol-6-ol] yielded an IC50 (METTL3/14; [2]) of 6.95 nM and an IC50 (MOLM-13 cells) of at least 30000 nM.

In the case of `COc1ccc2[nH]ncc2c1-c1cn(Cc2cn3cc(CNCC4(O)CCC4)ccc3n2)nn1` [Example 268, 1-[[[2-[[4-(5-methoxy-1H-indazol-4-yl)triazol-1-yl]methyl]imidazo[1,2-a]pyridin-6-yl]methylamino]methyl]cyclobutanol], the IC50 (METTL3/14; [2]) is reported as 10.6 nM and the IC50 (MOLM-13 cells) is reported as 5330 nM.

For `OC1(CNCc2ccc3nc(Cn4cc(-c5cc(Br)cc6[nH]ncc56)nn4)cn3c2)CCCCC1` [Example 294, 1-[[[2-[[4-(6-bromo-1H-indazol-4-yl)triazol-1-yl]methyl]imidazo[1,2-a]pyridin-6-yl]methylamino]methyl]cyclohexanol], the IC50 (METTL3/14; [2]) was 5.8 nM and the IC50 (MOLM-13 cells) was 998 nM.

`Brc1cc(-c2cn(Cc3cn4cc(CNCC5CCC5)ccc4n3)nn2)c2cn[nH]c2c1` [Example 296, 1-[2-[[4-(6-bromo-1H-indazol-4-yl)triazol-1-yl]methyl]imidazo[1,2-a]pyridin-6-yl]-N-(cyclobutylmethyl)methanamine] gave an IC50 (METTL3/14) of at most 4.44 nM and an IC50 (MOLM-13 cells) of 362 nM.

Source: patent US12358915B2, “METTL3 inhibitory compounds” (STORM THERAPEUTICS LTD., priority 2019, dated 2025)
